Experimental data published in US9180155B2, “Compositions from Nigella sativa” (Bio Nexus, Ltd, priority 2013, dated 2015).

Experiments:
[1] = test system: prostate specific antigen (PSA) secretion by LNCaP prostate cells; test: PSA secretion from LNCaP prostate cells; format: cell-based, Human; settings: 5 to 100 μg/mL (Spent#1, NSSpent#2: 250 and 500)
Excerpt: PSA was quantified from the cell culture supernatant fluid using the Quantikine Human KLK3/PSA Immunoassay kit (R&D Systems, Inc., Minneapolis, Minn.). All other materials used in this example were purchased from Sigma (St. Louis, Mo.) or otherwise noted and were of the highest purity commercially available. The N. sativa samples used in this study were those commercial-scale extracts described in Example 1. The LNCaP prostate cell line, which produces PSA, was used to study the effects of commercial-scale N. sativa scale extracts of Example 1 and pure TQ on the secretion of PSA. LNCaP cells were purchased from the American Type Culture Collection (ATCC, Manassas, Va.) and sub-cultured according to instructions supplied by ATCC. Prior to experiments, cells were cultured in DMEM containing 10% FBS-HI added 50 units penicillin/ml and 50 μg streptomycin/ml, and maintained in log phase prior to experimental setup. Cells were grown in a 5% CO2 humidified incubator at 37° C. Components of medium included: (1) 10% FBS/DMEM (Fetal Bovine Serum/Dulbecco's Modified Eagle's Medium) containing 4.5 g glucose/L; (2) 50 U/ml penicillin; and (3) 50 μg/ml streptomycin. Growth medium was made by adding 50 ml of heat inactivated FBS and 5 ml of penicillin/streptomycin to 500 ml DMEM. This medium was stored at 4° C. Before use, the medium was warmed to 37° C. in a water bath. LNCaP cells were seeded at an initial density of 6×10^4 cells/cm^2 in 96-well plates. For two days, the cells were allowed grow to reach confluence. On day three post seeding, cells were treated with TQ, NS8, NS9, NS10, Spent#1, and NSSpent#2 at the concentrations listed in FIGS. 5, 6 and 7. Twenty-four hours later, the supernatant media were sampled and assayed for PSA.

[2] = test system: IL-6 secretion in 3T3-L1 adipocytes; test: IL-6 secretion in t10-CLA-stimulated 3T3-L1 adipocytes; format: cell-based, murine; settings: t10-CLA 50 μM control = 100; μg TQ equivalents/mL: Thymoquinone 5.0, NS8 0.11, NS9 0.99, NS10 0.012, NSSpent#2 0.0005; NSSpent#1 5 μg/mL; listed as TQ
Method: The 3T3-L1 murine fibroblast model as used in Example 4 was used in this experiments. Test materials were added four hours prior to the addition of t10-CLA at a concentration of 50 μM. Following overnight incubation, the supernatant media were sampled for determination of IL-6 and adiponectin. The IL-6 secreted into the medium in response to […] stimulation was quantified using the Quantikine® Mouse IL-6 Immunoassay kit with no modifications (R&D Systems, Minneapolis, Minn.). […] All supernatant media samples were diluted 1:30 for quantification. Test materials and were assayed in duplicate, while solvent controls were replicated eight times. IL-6 and adiponectin secretion were represented relative to the IL-6 and adiponectin secretion of the t10-CLA only controls as the IL-6 and adiponectin index and differences among the means were analyzed by the student's t-test assuming a five percent probability of a type I error (Excel; Microsoft, Redmond, Wash.).

## CC1=CC(=O)C(C(C)C)=CC1=O [Thymoquinone, thymoquinone]
[1]; at 5 and 10 µg/mL
  Effect on PSA Secretion over 24 Hours: Decreased PSA at 5 and 10 μg/mL, dramatic
[1]; at 50 and 100 µg/mL
  Effect on PSA Secretion over 24 Hours: increase in PSA secretion at 50 and 100 μg/mL.
[1]; listed as TQ
  Effect on PSA Secretion over 24 Hours: decreased PSA only at the two lowest doses tested
[2]
  IL-6 Index: inhibited IL-6 secretion
